From US7052724B2, “Method of producing active dry yeast” (Suntory Limited, priority 2001, dated 2006)

Tested on: recovered yeast (slurry yeast recovered from the beer fermentation step)
Assay: Methylene Blue staining ratio (mortality) of yeast before drying or after drying and reconstitution with water
Format: cell-based
Conditions: for Ratio of the dead cells after drying and reconstitution with water: 5% of trehalose; for Elevating the survival ratio of the yeast after reconstitution with water, similar to glycerol: as substitute for glycerol; for Elevating the survival ratio of the dry yeast after reconstitution with water, similar to trehalose: as substitute for trehalose
Experimental: 50 g of a 20% aqueous solution of trehalose was added to 50 g of the recovered yeast and the resultant mixture was stirred at 20° C. for 3 hours to thereby incorporate the trehalose into the yeast cells. Then the yeast having trehalose thus incorporated was filtered under suction on a filter paper No.2 with the use of a Nutsche filter. The obtained yeast was then passed through a 14-mesh sieve and dried in a thermostat at 30° C. for about 20 hours to give a dry yeast. 0.1 g of this dry yeast was suspended and reconstituted in 1 ml of distilled water at room temperature. Then the mortality of the yeast was measured by the Methylene Blue staining method. Since dead cells could not reduce Methylene Blue, the cells stained with Methylene Blue were regarded as dead cells. Thus, the Methylene Blue staining ratio could be referred to as the mortality. […] Thus, trehalose was incorporated as in Example 1 and then the yeast was dried. […]
To 50 g of the slurry yeast recovered from the beer fermentation step, 50 g of an aqueous trehalose solution (concentration: about 20%) was added. After stirring at 20° C. for 3 hours, the yeast was centrifuged, suspended in 50 g portions of 300 g/L aqueous solutions of various sugar alcohols and maintained at room temperature for 15 minutes. Subsequently, the yeast was filtered under suction on a filter paper No.2 as in Example 2. The obtained yeast was passed through a 14-mesh sieve and dried in a thermostat at 5° C. for about 20 hours. The dry yeast thus obtained was reconstituted with water as in Example 2 and stained with Methylene Blue to measure the mortality of the yeast.
To 50 g of the slurry yeast recovered from the beer fermentation step, 50 g of an aqueous trehalose solution (concentration: about 20%) was added. After stirring at 20° C. for 3 hours, the yeast was centrifuged, suspended in 50 g of an about 300 g/L aqueous glycerol solution and maintained at room temperature for 15 minutes. Subsequently, the yeast was filtered under suction on a filter paper No.2 as in Example 2. The obtained yeast was passed through a 14-mesh sieve and dried in a thermostat at 5° C. to 30° C. for about 20 hours. Alternatively, the yeast was dried by using a fluidized bed dryer at 30° C. for 1 hour. Each of the dry yeast thus obtained was rehydrated with water as in Example 2 and stained with Methylene Blue to measure the mortality of the yeast.

[1] = sugar/sugar alcohol (about 20% solution, 20° C., 3 hours) as substitute for trehalose, then 300 g/L glycerol, dried at 5° C.
[2] = glycerol 100 g/L after trehalose-treatment
[3] = glycerol 150 g/L after trehalose-treatment
[4] = glycerol 200 g/L after trehalose-treatment
[5] = glycerol 300 g/L after trehalose-treatment
[6] = trehalose-treatment, then 300 g/L sugar alcohol as substitute for glycerol, 15 minutes, dried at 5° C.
[7] = trehalose-treatment as in Example 2, after rehydration with water

OC1OC[C@@H](O[C@@H]2OC[C@@H](O)[C@H](O)[C@H]2O)[C@H](O)[C@H]1O (some centres unmarked) [Xylobiose]
Methylene Blue-staining ratio (%) after reconstitution with water [1]: 46.5%

O=C(CO)[C@@H](O)[C@H](O)[C@H](O)CO [Fructose]
Methylene Blue-staining ratio (%) after reconstitution with water [1]: 51.1%

OCC(O)CO [Glycerol, glycerol]
Methylene Blue-staining ratio, after reconstitution with water after drying and storing at 25° C. for 8 days [2]: 59.8%
Methylene Blue-staining ratio, before drying [2]: 20.8%
Methylene Blue-staining ratio, immediately after drying/reconstitution with water (glycerol 100 g/L after trehalose-treatment, dried at 5° C.): 30.8%
Methylene Blue-staining ratio, after reconstitution with water after drying and storing at 25° C. for 8 days [3]: 62.3%
Methylene Blue-staining ratio, before drying [3]: 66.7%
Methylene Blue-staining ratio, immediately after drying/reconstitution with water (glycerol 150 g/L after trehalose-treatment, dried at 5° C.): 23.7%
Methylene Blue-staining ratio, after reconstitution with water after drying and storing at 25° C. for 8 days [4]: 40.2%
Methylene Blue-staining ratio, before drying [4]: 97.8%
Methylene Blue-staining ratio, immediately after drying/reconstitution with water (glycerol 200 g/L after trehalose-treatment, dried at 5° C.): 26.3%
Methylene Blue-staining ratio, after reconstitution with water after drying and storing at 25° C. for 8 days [5]: 48.5%
Methylene Blue-staining ratio, before drying [5]: 99.6%
Methylene Blue-staining ratio, immediately after drying/reconstitution with water (glycerol 300 g/L after trehalose-treatment, dried at 5° C.): 26.2%
Methylene Blue-staining ratio, before drying (trehalose-treatment then 300 g/L aqueous glycerol, 15 minutes): 95.8%
Methylene Blue-staining ratio, after drying/reconstitution with water (trehalose-treatment then 300 g/L aqueous glycerol, 15 minutes, dried at 5° C.): 18.3%
Methylene Blue-staining ratio (%) after reconstitution with water [6]: 24.4%

OC[C@H]1O[C@H](O[C@H]2O[C@H](CO)[C@@H](O)[C@H](O)[C@H]2O)[C@H](O)[C@@H](O)[C@@H]1O [Trehalose, trehalose]
Ratio of the dead cells after drying and reconstitution with water (10° C., 1 or 3 hours): about 60%
Ratio of the dead cells after drying and reconstitution with water (10° C., 21 hours): about 90%
Methylene Blue-staining ratio (before drying, treated with 5% trehalose, 10° C., 1 Hrs): 8.97
Methylene Blue-staining ratio (before drying, treated with 5% trehalose, 10° C., 3 Hrs): 8.45
Methylene Blue-staining ratio (before drying, treated with 5% trehalose, 10° C., 21 Hrs): 11.88
Methylene Blue-staining ratio (before drying, treated with 5% trehalose, 20° C., 1 Hrs): 6.58
Methylene Blue-staining ratio (before drying, treated with 5% trehalose, 20° C., 3 Hrs): 7.51
Methylene Blue-staining ratio (before drying, treated with 5% trehalose, 20° C., 21 Hrs): 16.44
Methylene Blue-staining ratio (before drying, treated with 10% trehalose, 10° C., 1 Hrs): 6.36
Methylene Blue-staining ratio (before drying, treated with 10% trehalose, 10° C., 3 Hrs): 8.67
Methylene Blue-staining ratio (before drying, treated with 10% trehalose, 10° C., 21 Hrs): 17.68
Methylene Blue-staining ratio (before drying, treated with 10% trehalose, 20° C., 1 Hrs): 8.26
Methylene Blue-staining ratio (before drying, treated with 10% trehalose, 20° C., 3 Hrs): 9.24
Methylene Blue-staining ratio (before drying, treated with 10% trehalose, 20° C., 21 Hrs): 8.90
Methylene Blue-staining ratio (immediately after reconstitution with water (dried at 30° C.), 5% trehalose, 10° C., 1 Hrs): 63.72
Methylene Blue-staining ratio (immediately after reconstitution with water (dried at 30° C.), 5% trehalose, 10° C., 3 Hrs): 63.40
Methylene Blue-staining ratio (immediately after reconstitution with water (dried at 30° C.), 5% trehalose, 10° C., 21 Hrs): 90.11
Methylene Blue-staining ratio (immediately after reconstitution with water (dried at 30° C.), 5% trehalose, 20° C., 1 Hrs): 64.95
Methylene Blue-staining ratio (immediately after reconstitution with water (dried at 30° C.), 5% trehalose, 20° C., 3 Hrs): 84.17
Methylene Blue-staining ratio (immediately after reconstitution with water (dried at 30° C.), 5% trehalose, 20° C., 21 Hrs): 92.47
Methylene Blue-staining ratio (immediately after reconstitution with water (dried at 30° C.), 10% trehalose, 10° C., 1 Hrs): 69.51
Methylene Blue-staining ratio (immediately after reconstitution with water (dried at 30° C.), 10% trehalose, 10° C., 3 Hrs): 64.95
Methylene Blue-staining ratio (immediately after reconstitution with water (dried at 30° C.), 10% trehalose, 10° C., 21 Hrs): 79.33
Methylene Blue-staining ratio (immediately after reconstitution with water (dried at 30° C.), 10% trehalose, 20° C., 1 Hrs): 62.15
Methylene Blue-staining ratio (immediately after reconstitution with water (dried at 30° C.), 10% trehalose, 20° C., 3 Hrs): 62.04
Methylene Blue-staining ratio (immediately after reconstitution with water (dried at 30° C.), 10% trehalose, 20° C., 21 Hrs): 87.43
Methylene Blue-staining ratio (%) after reconstitution with water [1]: 32.2%
Mortality (%) after drying at 30° C. [7]: 73.4%
Mortality (%) after drying at 50° C. [7]: 58.0%

O=C[C@H](O)[C@@H](O)[C@H](O[C@@H]1O[C@H](CO)[C@@H](O)[C@H](O)[C@H]1O)[C@H](O)CO [Cellobiose]
Methylene Blue-staining ratio (%) after reconstitution with water [1]: 54.8%

OC[C@@H](O)[C@@H](O)[C@H](O)[C@@H](O)CO [Sorbitol]
Methylene Blue-staining ratio (%) after reconstitution with water [1]: 41.8%
Methylene Blue-staining ratio (%) after reconstitution with water [6]: 41.2%

OC[C@H]1O[C@@H](O[C@H]2[C@H](O)[C@@H](O)C(O)O[C@@H]2CO)[C@H](O)[C@@H](O)[C@H]1O (some centres unmarked) [Lactose]
Methylene Blue-staining ratio (%) after reconstitution with water [1]: 38.6%

OC[C@@H](O)[C@H](O)[C@@H](O)CO [Xylitol]
Elevating the survival ratio of the yeast after reconstitution with water, similar to glycerol: effective
Methylene Blue-staining ratio (%) after reconstitution with water [1]: 41.6%
Methylene Blue-staining ratio (%) after reconstitution with water [6]: 30.4%

OC[C@@H](O)[C@@H](O)[C@H](O)[C@H](O)CO [Mannitol]
Elevating the survival ratio of the dry yeast after reconstitution with water, similar to trehalose: effective
Methylene Blue-staining ratio (%) after reconstitution with water [1]: 37.1%
Methylene Blue-staining ratio (%) after reconstitution with water [6]: 47.5%

OC[C@H]1O[C@H](O[C@H]2[C@H](O)[C@@H](O)[C@H](O)O[C@@H]2CO)[C@H](O)[C@@H](O)[C@@H]1O [Maltose]
Methylene Blue-staining ratio (%) after reconstitution with water [1]: 56.4%

OC[C@@H](O)[C@@H](O[C@H]1O[C@H](CO)[C@@H](O)[C@H](O)[C@H]1O)[C@H](O)[C@@H](O)CO [Maltitol]
Elevating the survival ratio of the yeast after reconstitution with water, similar to glycerol: effective
Elevating the survival ratio of the dry yeast after reconstitution with water, similar to trehalose: effective
Methylene Blue-staining ratio (%) after reconstitution with water [1]: 29.7%
Methylene Blue-staining ratio (%) after reconstitution with water [6]: 30.1%

O=C[C@H](O)[C@@H](O)[C@@H](O)[C@H](O)CO [Galactose]
Methylene Blue-staining ratio (%) after reconstitution with water [1]: 40.6%

OC[C@H]1O[C@@](CO)(O[C@H]2O[C@H](CO)[C@@H](O)[C@H](O)[C@H]2O)[C@@H](O)[C@@H]1O [Sucrose]
Methylene Blue-staining ratio (%) after reconstitution with water [1]: 51.9%

O=C[C@H](O)[C@@H](O)[C@H](O)CO [Xylose]
Elevating the survival ratio of the dry yeast after reconstitution with water, similar to trehalose: effective
Methylene Blue-staining ratio (%) after reconstitution with water [1]: 37.7%
